Test results as given in patent US10058524B2, “Methods for improving joint function” (Tersus Life Sciences, LLC, priority 2015, dated 2018).

Assays:
Format in all cases: in vivo
Human Subjects [1] = experiment: Stepmill Protocol: time of onset and offset of knee discomfort
Procedure: The study duration was thirty-seven (37) days with a total of 4 visits per subject. The initial screening visit (Visit 1) occurred 7 days prior to the initiation of the study (Day −7). Subjects arrived in the clinic having fasted for 10 hours in preparation for Visit 1. Subjects underwent the informed consent process and were screened for the presence of all the inclusion criteria and the absence of all the exclusion criteria. The screening process also included taking a detailed medical history, recording prior and concomitant medications, performing a physical examination, and documenting vital signs, and anthropometric measures. To determine eligibility, subjects continuously used the Stepmill at a set rate for 10 minutes until they complained of knee discomfort (in at least one knee) that scored at least 5 on an 11 point numeric pain rating scale. The time of onset of joint pain was recorded. Subjects were also instructed to inform the clinician when their discomfort began to subside and when their discomfort completely resolved.
Baseline assessments included evaluating the pain or discomfort experienced by subjects during exercise testing. Subjects were instructed to exercise on a StepMill® model 7000PT (StairMaster® Health & Fitness Products, Inc., Kirkland, Wash.) at a set rate (Level 4) for 10 minutes. The following knee discomfort measures were recorded from the beginning of the Stepmill test: (1) time of onset of initial joint pain; (2) time of onset of maximum joint pain; (3) time at which initial improvement in knee joint pain was achieved; and (4) time of complete recovery from knee joint pain. Subjects that reported a discomfort level of 5 on an 11 point (0-10) Likert scale in at least one knee within the 10-minute period were selected. Once the requisite pain level was achieved, the subject was asked to continue stepping for an additional two minutes in order to record the maximum pain level reached before disembarking from the stepmill. Subjects who experienced a pain score of 5 (or greater) within one minute of starting the stress test were excluded.
(§1) Subjects who met all of the study inclusion criteria and none of the exclusion criteria were randomly assigned to either the C16:1n7-palmitoleate-treatment or placebo groups. The C16:1n7-palmitoleate composition included palmitoleic acid, gelatin, glycerin and purified water whereas the placebo included medium chain triglycerides. […] The subjects and the clinical staff were unaware of what group a particular subject was allocated to. Baseline assessments for joint pain and knee range of motion in a subject were obtained via the 6-Minute Timed Walk, Stepmill Protocol, and goniometry. At the end of the visit, subjects were provided with a 7-day supply of the C16:1n7-palmitoleate composition or placebo and daily dosing diaries. Subjects were instructed to ingest a single capsule of the C16:1n7-palmitoleate composition or the placebo per day.
(§2) Subjects returned to the clinic at Visit 3 (Day 7) for repeat assessments of joint pain, range of motion, activity levels and health-related quality of life scores. After the performance-based physical functioning measures were evaluated, the subjects were provided with a 23-day supply of the C16:1n7-palmitoleate composition or placebo. Subjects returned to the clinic at Visit 4 (Day 30), which marked the end of the study, for reevaluation of the performance-based physical functioning measures.
The time of onset of discomfort or pain level refers to the time at which the minimum or maximum discomfort or pain level is reached. The time of onset of minimum discomfort or pain level refers to the time at which minimum discomfort or pain level is reached. The time of onset of maximum discomfort or pain level refers to the time at which maximum discomfort or pain level is reached.
As used herein, the time of offset of discomfort is the time at which a level of relief is reached after performing the Stepmill Protocol described herein. […]

Human Subjects [2] = experiment: 6-Minute Timed Walk; details: between treated and placebo groups, any time point
Procedure: Other performance-based physical functioning measures including the 6-Minute Timed Walk and Knee Range of Motion (ROM) were also performed by the subjects. In the 6-Minute Timed Walk, subjects walked up and down a hallway for 6 minutes and were instructed to walk as rapidly as possible within their comfort zone, and as rapidly as possible without causing themselves any pain.
as §1, with “At the end of the visit, subjects were provided with a 7-day supply of the C16:1n7-palmitoleate composition or placebo and daily dosing diaries. Subjects were instructed to ingest a single capsule of the C16:1n7-palmitoleate composition or the placebo per day.” left out
as §2, with “Subjects returned to the clinic at Visit 4 (Day 30), which marked the end of the study, for reevaluation of the performance-based physical functioning measures.” left out

Human Subjects [3] = experiment: Knee range of motion by goniometry (extension and flexion)
Source text: (§3) Goniometry was used to measure knee range of motion. To measure Knee Extension, subjects were instructed to extend the left or right knee to full extension without changing the position of their pelvis and lumbar spine. An inclinometer was placed along the subject's shin so as to document the range of motion in degrees. To measure Knee Flexion, subjects were asked to lie on their stomach with their shins off the end of the table, and were instructed to fully extend their knees. The subject was then asked to actively flex his/her knee to a full flexion position. The following scales and questionnaires: Stanford Exercise Behavior Scale—Stretching and Aerobics, Knee-related QOL subscale of KOOS Knee Survey, SF-12, and Knee Discomfort Improvement Scale were completed by the subjects at the initial screening.
as §1, §2
Goniometric measurements, which record the active and passive range of motion in joints like the knee, are often used in evaluating joint function.

Human Subjects [4] = experiment: Stanford Exercise Behavior Scale - Stretching and Aerobics
Source text: as §3
Experimental endpoints included Change in Time of Onset and Offset of Discomfort, Changes in 6-Minute Timed Walk, Change in Knee Range of Motion as measured by goniometry including Left and Right Knee Extension and Left and Right Knee Flexion. Stanford Exercise Scale—Stretching and Aerobics was used to measure the effect of the C16:1n7-palmitoleate composition on physical activity levels.

Human Subjects [5] = experiment: SF-12 survey (physical and mental component scores)
Source text: as §3
Quality of life (QOL) was assessed using Change in SF-12 and Knee-related QOL subscale of KOOS Knee Survey, and Knee Discomfort Improvement Scale. The SF-12 is a multipurpose short form survey with 12 questions, all selected from the SF-36 Health Survey. The questions were combined, scored, and weighted to create two scales that provide glimpses into the subject's mental and physical functioning and overall health-related-quality of life. Physical and Mental Health Component Summary Scores were computed using the scores of the twelve questions and a range from 0 to 100, where zero corresponds to the lowest level of health measured by the scales and 100 corresponds to the highest level of health.

Human Subjects [6] = experiment: Knee-related QOL subscale of KOOS Knee Survey
Source text: as §3
Knee injury and Osteoarthritis Outcome Score (KOOS) is an instrument to assess the patients' opinion about their knee and knee-associated problems. For this study, only the Knee Related QOL subscale was used.

Human Subjects [7] = experiment: Knee Discomfort Improvement Scale; details: group n=20
Source text: as §3
Knee Discomfort Improvement Scale refers to the response to the question “Is your overall knee discomfort improving?”, rated using a 3-point scale where zero is “Not at All”, 1 is “Moderately” and 2 is “Definitely”.

[8] = between treated and placebo groups, any time point
[9] = within-group, baseline to any time point

Compound: CCCCCC/C=C\CCCCCCCC(=O)O [C16:1n7-palmitoleate, palmitoleic acid]
- average time to report maximum discomfort or pain level (Human Subjects [1]; after 30 days, placebo 5.43±2.53 minutes): 6.89 ± 2.59 min
- time of onset of minimum discomfort or pain level (Human Subjects [1]; between treated and placebo groups): no statistically significant difference
- time of offset of maximum discomfort (Human Subjects [1]; [8]): no statistically significant difference
- time of offset of minimum discomfort (Human Subjects [1]; [8]): no statistically significant difference
- changes in the time of onset of maximum discomfort from Day 0 to Day 30 (Human Subjects [1]; between treated and placebo groups, p=0.007): statistically significant difference
- time to reach maximum discomfort or pain level (Human Subjects [1]; between treated and placebo groups, treated taking more time): significantly different
- time of onset of minimum discomfort or pain level (Human Subjects [1]; within-group, 7 days vs Day 0, p=0.013, one capsule per day): statistically significant increase
- time of onset of minimum discomfort or pain level (Human Subjects [1]; within-group, 30 days vs Day 0, p=0.005, one capsule per day): statistically significant increase
- time of onset of maximum discomfort (Human Subjects [1]; within-group, 30 days vs Day 0, p=0.012): significantly increased
- time of offset of maximum discomfort (Human Subjects [1]; within-group, 30 days vs Day 0, p=0.014): decrease
- time of minimum offset of discomfort (Human Subjects [1]; [9]): no statistically significant changes
- distance covered during the 6-minute timed walk (Human Subjects [2]): no statistically significant difference
- change in left knee flexion (Human Subjects [3]; after 7 days of supplementation): apparent
- right knee extension (Human Subjects [3]; [8]): no statistically significant difference
- right knee flexion (Human Subjects [3]; [8]): no statistically significant difference
- left knee flexion (Human Subjects [3]; within-group, 30 days vs Day 0, p=0.015): significant increase
- right knee flexion (Human Subjects [3]; within-group, 30 days vs Day 0, p=0.019): significant increase
- left knee extension (Human Subjects [3]; within-group, 30 days vs Day 0, p=0.028): significant increase
- right knee extension (Human Subjects [3]; [9]): no statistically significant changes
- average minutes per week for aerobic exercise (Human Subjects [4]; [8]): no statistically significant differences
- average minutes per week for stretching exercise (Human Subjects [4]; [8]): no statistically significant differences
- time spent stretching (Human Subjects [4]; within-group, after 30 days of supplementation, p=0.066): non-statistically significant yet clinically significant increase
- average minutes per week for aerobic exercise (Human Subjects [4]; [9]): no statistically significant changes
- mental component score of the SF-12 survey (Human Subjects [5]; [8]): no statistically significant differences
- physical component score of the SF-12 survey (Human Subjects [5]; [8]): no statistically significant differences
- increase in the physical component score of the SF-12 survey (Human Subjects [5]; within-group, 30 days vs Day 0, p=0.031): 8.93%
- mental component score of the SF-12 survey (Human Subjects [5]; [9]): no statistically significant changes
- knee-related quality of life scores (Human Subjects [6]; [8]): no statistically significant differences
- knee-related quality of life scores (Human Subjects [6]; within-group, Day 7 vs Day 0, p=0.002): increase
- knee-related quality of life scores (Human Subjects [6]; within-group, Day 30 vs Day 0, p<0.001): increase
- number of subjects that reported moderate improvements in knee discomfort (Human Subjects [7]; Day 0 (baseline)): 4
- number of subjects that reported definite improvements in knee discomfort (Human Subjects [7]; Day 7): 2
- number of subjects that reported moderate improvements in knee discomfort (Human Subjects [7]; Day 7): 10
- number of subjects that reported moderate improvements in knee discomfort (Human Subjects [7]; Day 30): 8 subjects
- number of subjects that reported definite improvements in knee discomfort (Human Subjects [7]; Day 30, comparable to placebo): 8
